{"source": "paper PMC10848004", "about": "(Saudi Pharmaceutical Journal : SPJ, 2024)", "key": {"[1]": {"biological_target": "CYP2D6 (Homo sapiens, UniProt P10635)", "sequence (P10635 whole entry)": "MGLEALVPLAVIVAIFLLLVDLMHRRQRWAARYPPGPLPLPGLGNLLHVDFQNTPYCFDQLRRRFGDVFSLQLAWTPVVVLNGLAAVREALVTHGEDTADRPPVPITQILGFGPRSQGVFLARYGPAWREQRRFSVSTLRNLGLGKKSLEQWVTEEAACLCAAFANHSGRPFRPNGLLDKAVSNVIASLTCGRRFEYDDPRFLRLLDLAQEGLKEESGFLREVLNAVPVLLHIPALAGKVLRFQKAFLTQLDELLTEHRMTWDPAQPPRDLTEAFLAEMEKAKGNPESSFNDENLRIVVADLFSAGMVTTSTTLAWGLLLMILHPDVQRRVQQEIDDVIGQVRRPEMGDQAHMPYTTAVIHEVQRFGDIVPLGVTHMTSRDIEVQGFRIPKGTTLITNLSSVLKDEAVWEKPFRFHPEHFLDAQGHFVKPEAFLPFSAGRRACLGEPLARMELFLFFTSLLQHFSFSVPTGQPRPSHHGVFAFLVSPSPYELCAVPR", "experiment": "CYP inhibition in HLM, CYP2D6", "assay_type": "in vitro ADME"}, "[2]": {"system": "glaucomatous rabbit eye model", "experiment": "Antiglaucoma activity in vivo, IOP lowering, topical", "conditions": "1 % concentration, at 1 h post-administration"}}, "data": [{"molecule": "COc1ccc2c(c1)[C@]13CCCC[C@@H]1[C@H](C2)N(C)CC3", "note": "[Dextromethorphan]", "values": [{"measurement": "IC50", "setting": "[1]", "value": 1.34, "unit": "µM"}]}, {"molecule": "CCN[C@H]1CN(CCCOC)S(=O)(=O)c2sc(S(N)(=O)=O)cc21", "note": "[BRZ, brinzolamide]", "values": [{"measurement": "maximal intraocular pressure lowering effect", "setting": "[2]", "value": "around 5 mm Hg"}]}]}
